How the values were obtained:
[1] = target: RAC-alpha serine/threonine-protein kinase (Homo sapiens) (UniProt P31749); conditions: Compound concentration 1000.0 nM
[2] = target: Protein-tyrosine kinase 6 (Homo sapiens) (UniProt Q13882); conditions: Compound concentration 1000.0 nM
[3] = target: Serine/threonine-protein kinase BRSK1 (Homo sapiens) (UniProt Q8TDC3); conditions: Compound concentration 1000.0 nM
[4] = target: Cyclin-dependent kinase 13 (Homo sapiens) (UniProt Q14004); conditions: Compound concentration 1000.0 nM
[5] = target: Cyclin-dependent kinase 7 (Homo sapiens) (UniProt P50613); conditions: Compound concentration 1000.0 nM
[6] = target: Cyclin-dependent kinase 9 (Homo sapiens) (UniProt P50750); conditions: Compound concentration 1000.0 nM
[7] = target: Macrophage colony-stimulating factor 1 receptor (Homo sapiens) (UniProt P07333); conditions: Compound concentration 1000.0 nM
[8] = target: Casein kinase II subunit alpha (Homo sapiens) (UniProt P68400); conditions: Compound concentration 1000.0 nM
[9] = target: Megakaryocyte-associated tyrosine-protein kinase (Homo sapiens) (UniProt P42679); conditions: Compound concentration 1000.0 nM
[10] = target: Mitogen-activated protein kinase kinase kinase 12 (Homo sapiens) (UniProt Q12852); conditions: Compound concentration 1000.0 nM
[11] = target: Serine/threonine-protein kinase 17B (Homo sapiens) (UniProt O94768); conditions: Compound concentration 1000.0 nM
Chain of Serine/threonine-protein kinase 17B (Homo sapiens) (O94768 whole entry): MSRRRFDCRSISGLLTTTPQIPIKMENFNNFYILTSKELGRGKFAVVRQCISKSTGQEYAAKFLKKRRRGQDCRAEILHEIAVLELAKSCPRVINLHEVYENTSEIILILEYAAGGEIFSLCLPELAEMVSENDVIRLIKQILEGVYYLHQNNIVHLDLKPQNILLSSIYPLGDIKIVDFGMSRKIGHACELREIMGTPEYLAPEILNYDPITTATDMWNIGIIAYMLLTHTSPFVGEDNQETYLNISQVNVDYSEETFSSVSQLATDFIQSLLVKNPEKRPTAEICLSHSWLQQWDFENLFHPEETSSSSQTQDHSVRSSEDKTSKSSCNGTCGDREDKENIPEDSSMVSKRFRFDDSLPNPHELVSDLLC

[12] = target: Dual specificity tyrosine-phosphorylation-regulated kinase 1B (Homo sapiens) (UniProt Q9Y463); conditions: Compound concentration 1000.0 nM
[13] = tested on: Epidermal growth factor receptor (Homo sapiens), P00533 [L861Q]; conditions: Compound concentration 1000.0 nM
[14] = target: Ephrin type-A receptor 5 (Homo sapiens) (UniProt P54756); conditions: Compound concentration 1000.0 nM
[15] = target: Ephrin type-B receptor 6 (Homo sapiens) (UniProt O15197); conditions: Compound concentration 1000.0 nM
Chain of Ephrin type-B receptor 6 (Homo sapiens) (O15197 whole entry): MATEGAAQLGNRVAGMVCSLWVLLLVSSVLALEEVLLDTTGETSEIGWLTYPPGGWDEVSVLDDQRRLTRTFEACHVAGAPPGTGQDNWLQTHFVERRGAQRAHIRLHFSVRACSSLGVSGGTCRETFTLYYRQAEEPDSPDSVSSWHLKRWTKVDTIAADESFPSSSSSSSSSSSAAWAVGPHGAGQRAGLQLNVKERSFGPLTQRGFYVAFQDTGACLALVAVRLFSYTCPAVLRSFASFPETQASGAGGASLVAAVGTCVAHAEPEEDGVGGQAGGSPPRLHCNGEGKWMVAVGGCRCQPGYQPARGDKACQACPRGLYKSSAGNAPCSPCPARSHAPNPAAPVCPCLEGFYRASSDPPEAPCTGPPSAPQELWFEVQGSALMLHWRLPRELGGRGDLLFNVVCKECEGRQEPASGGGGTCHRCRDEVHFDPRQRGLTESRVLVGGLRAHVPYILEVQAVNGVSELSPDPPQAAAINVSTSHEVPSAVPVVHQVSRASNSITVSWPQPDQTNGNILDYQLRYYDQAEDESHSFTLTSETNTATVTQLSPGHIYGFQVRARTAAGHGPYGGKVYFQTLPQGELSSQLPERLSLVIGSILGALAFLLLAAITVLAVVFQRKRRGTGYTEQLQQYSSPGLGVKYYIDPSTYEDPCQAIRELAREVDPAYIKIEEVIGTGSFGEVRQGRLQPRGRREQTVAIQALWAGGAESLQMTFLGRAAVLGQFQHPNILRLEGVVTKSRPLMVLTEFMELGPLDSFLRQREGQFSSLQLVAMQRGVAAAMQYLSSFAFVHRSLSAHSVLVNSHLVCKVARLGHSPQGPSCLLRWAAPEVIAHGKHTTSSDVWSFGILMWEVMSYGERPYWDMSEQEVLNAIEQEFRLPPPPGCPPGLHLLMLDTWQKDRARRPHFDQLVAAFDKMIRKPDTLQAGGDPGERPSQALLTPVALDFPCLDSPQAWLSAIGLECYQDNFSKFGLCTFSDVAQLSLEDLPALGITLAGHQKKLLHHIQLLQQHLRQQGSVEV

[16] = target: Receptor tyrosine-protein kinase erbB-2 (Homo sapiens) (UniProt P04626); conditions: Compound concentration 1000.0 nM
[17] = target: Mitogen-activated protein kinase 6 (Homo sapiens) (UniProt Q16659); conditions: Compound concentration 1000.0 nM
[18] = target: Tyrosine-protein kinase Fer (Homo sapiens) (UniProt P16591); conditions: Compound concentration 1000.0 nM
[19] = target: Vascular endothelial growth factor receptor 1 (Homo sapiens) (UniProt P17948); conditions: Compound concentration 1000.0 nM
[20] = tested on: Receptor-type tyrosine-protein kinase FLT3 (Homo sapiens), P36888 [UNDEFINED MUTATION]; conditions: Compound concentration 1000.0 nM
[21] = tested on: Receptor-type tyrosine-protein kinase FLT3 (Homo sapiens), P36888 [N841I]; conditions: Compound concentration 1000.0 nM
[22] = target: Serine/threonine-protein kinase ICK (Homo sapiens) (UniProt Q9UPZ9); conditions: Compound concentration 1000.0 nM
[23] = target: Insulin-like growth factor 1 receptor (Homo sapiens) (UniProt P08069); conditions: Compound concentration 1000.0 nM
[24] = tested on: Mast/stem cell growth factor receptor Kit (Homo sapiens), P10721 [D816H]; conditions: Compound concentration 1000.0 nM
[25] = target: MAP/microtubule affinity-regulating kinase 4 (Homo sapiens) (UniProt Q96L34); conditions: Compound concentration 1000.0 nM
Chain of MAP/microtubule affinity-regulating kinase 4 (Homo sapiens) (Q96L34 whole entry): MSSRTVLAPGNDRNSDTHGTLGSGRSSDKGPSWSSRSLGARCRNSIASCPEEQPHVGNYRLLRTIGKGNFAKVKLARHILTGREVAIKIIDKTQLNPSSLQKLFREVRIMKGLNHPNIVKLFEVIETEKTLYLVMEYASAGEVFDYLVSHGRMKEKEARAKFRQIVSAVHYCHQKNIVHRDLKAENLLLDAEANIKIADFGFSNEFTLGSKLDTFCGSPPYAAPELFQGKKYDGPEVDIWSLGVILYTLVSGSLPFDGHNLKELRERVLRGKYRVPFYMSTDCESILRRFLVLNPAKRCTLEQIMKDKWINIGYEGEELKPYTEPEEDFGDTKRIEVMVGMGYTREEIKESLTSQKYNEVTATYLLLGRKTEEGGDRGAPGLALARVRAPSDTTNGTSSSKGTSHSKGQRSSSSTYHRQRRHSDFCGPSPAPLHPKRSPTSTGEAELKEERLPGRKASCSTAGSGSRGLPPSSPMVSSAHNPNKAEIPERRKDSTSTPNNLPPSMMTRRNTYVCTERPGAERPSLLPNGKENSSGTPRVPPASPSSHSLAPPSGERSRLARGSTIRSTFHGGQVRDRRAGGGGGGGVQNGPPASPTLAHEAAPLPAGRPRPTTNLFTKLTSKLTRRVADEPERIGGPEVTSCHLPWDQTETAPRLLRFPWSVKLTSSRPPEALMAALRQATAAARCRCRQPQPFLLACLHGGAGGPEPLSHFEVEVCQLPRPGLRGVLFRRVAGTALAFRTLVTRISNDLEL

[26] = target: Muscle, skeletal receptor tyrosine-protein kinase (Homo sapiens) (UniProt O15146); conditions: Compound concentration 1000.0 nM
Chain of Muscle, skeletal receptor tyrosine-protein kinase (Homo sapiens) (O15146 whole entry): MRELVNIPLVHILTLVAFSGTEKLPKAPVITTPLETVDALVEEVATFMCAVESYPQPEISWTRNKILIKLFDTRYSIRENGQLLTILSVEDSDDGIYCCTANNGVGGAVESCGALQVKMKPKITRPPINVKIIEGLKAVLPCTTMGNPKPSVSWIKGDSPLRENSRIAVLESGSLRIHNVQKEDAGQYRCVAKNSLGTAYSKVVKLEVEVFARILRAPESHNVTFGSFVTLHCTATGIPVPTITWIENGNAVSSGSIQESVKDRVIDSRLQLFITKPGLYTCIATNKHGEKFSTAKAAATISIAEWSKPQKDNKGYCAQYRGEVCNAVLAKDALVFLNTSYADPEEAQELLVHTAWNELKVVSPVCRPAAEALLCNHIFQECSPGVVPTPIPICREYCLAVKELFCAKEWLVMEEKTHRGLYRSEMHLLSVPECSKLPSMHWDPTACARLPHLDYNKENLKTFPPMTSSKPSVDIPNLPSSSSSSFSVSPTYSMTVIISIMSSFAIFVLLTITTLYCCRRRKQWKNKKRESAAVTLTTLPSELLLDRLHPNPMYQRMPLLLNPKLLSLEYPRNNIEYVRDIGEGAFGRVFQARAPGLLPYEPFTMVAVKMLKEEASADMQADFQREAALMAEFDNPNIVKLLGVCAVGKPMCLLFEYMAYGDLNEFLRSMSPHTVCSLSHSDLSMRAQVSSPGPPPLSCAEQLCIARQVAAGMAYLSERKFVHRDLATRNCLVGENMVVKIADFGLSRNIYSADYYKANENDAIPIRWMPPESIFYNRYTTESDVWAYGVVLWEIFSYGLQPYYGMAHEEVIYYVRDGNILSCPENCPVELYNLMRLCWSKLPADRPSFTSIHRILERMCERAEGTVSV

[27] = target: Serine/threonine-protein kinase 38 (Homo sapiens) (UniProt Q15208); conditions: Compound concentration 1000.0 nM
Chain of Serine/threonine-protein kinase 38 (Homo sapiens) (Q15208 2-465 limits assumed): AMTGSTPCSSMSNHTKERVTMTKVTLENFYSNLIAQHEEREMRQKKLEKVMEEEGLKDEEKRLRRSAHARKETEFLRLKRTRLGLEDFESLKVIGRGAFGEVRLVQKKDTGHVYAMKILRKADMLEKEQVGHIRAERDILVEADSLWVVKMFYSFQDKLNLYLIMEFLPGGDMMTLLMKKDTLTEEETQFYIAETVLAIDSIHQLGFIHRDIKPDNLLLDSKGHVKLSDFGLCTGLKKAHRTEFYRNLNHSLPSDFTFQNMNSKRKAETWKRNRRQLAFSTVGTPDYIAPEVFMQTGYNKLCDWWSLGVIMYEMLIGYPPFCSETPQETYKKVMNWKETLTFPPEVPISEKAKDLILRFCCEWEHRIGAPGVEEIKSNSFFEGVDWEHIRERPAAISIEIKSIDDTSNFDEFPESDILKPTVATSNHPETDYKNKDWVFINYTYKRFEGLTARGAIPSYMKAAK

[28] = target: Serine/threonine-protein kinase OSR1 (Homo sapiens) (UniProt O95747); conditions: Compound concentration 1000.0 nM
[29] = target: Mitogen-activated protein kinase 11 (Homo sapiens) (UniProt Q15759); conditions: Compound concentration 1000.0 nM
[30] = target: Phosphatidylinositol 4,5-bisphosphate 3-kinase catalytic subunit alpha isoform (Homo sapiens) (UniProt P42336); conditions: Compound concentration 1000.0 nM
[31] = target: Phosphatidylinositol 4-kinase beta (Homo sapiens) (UniProt Q9UBF8); conditions: Compound concentration 1000.0 nM
[32] = target: 1-phosphatidylinositol 3-phosphate 5-kinase (Homo sapiens) (UniProt Q9Y2I7); conditions: Compound concentration 1000.0 nM
[33] = target: Phosphatidylinositol 4-phosphate 5-kinase type-1 alpha (Homo sapiens) (UniProt Q99755); conditions: Compound concentration 1000.0 nM
Chain of Phosphatidylinositol 4-phosphate 5-kinase type-1 alpha (Homo sapiens) (Q99755 whole entry): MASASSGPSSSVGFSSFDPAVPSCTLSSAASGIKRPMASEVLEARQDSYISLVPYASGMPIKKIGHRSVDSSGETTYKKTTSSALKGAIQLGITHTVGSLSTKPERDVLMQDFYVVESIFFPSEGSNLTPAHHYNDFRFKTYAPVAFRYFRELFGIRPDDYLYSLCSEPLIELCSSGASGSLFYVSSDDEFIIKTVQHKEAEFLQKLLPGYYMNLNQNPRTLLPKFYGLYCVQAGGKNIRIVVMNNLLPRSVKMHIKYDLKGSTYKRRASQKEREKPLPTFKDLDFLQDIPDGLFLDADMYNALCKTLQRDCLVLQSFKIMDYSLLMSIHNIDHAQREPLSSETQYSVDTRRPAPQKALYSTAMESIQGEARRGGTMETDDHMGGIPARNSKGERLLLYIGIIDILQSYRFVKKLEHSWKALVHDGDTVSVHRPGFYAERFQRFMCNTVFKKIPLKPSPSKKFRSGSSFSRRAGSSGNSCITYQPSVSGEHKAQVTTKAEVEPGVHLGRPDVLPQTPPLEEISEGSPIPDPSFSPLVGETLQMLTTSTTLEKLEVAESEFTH

[34] = target: Phosphatidylinositol 5-phosphate 4-kinase type-2 gamma (Homo sapiens) (UniProt Q8TBX8); conditions: Compound concentration 1000.0 nM
[35] = target: Serine/threonine-protein kinase PLK1 (Homo sapiens) (UniProt P53350); conditions: Compound concentration 1000.0 nM
[36] = target: Serine/threonine-protein kinase 33 (Homo sapiens) (UniProt Q9BYT3); conditions: Compound concentration 1000.0 nM
[37] = target: Serine/threonine-protein kinase 35 (Homo sapiens) (UniProt Q8TDR2); conditions: Compound concentration 1000.0 nM
[38] = target: Dual specificity testis-specific protein kinase 1 (Homo sapiens) (UniProt Q15569); conditions: Compound concentration 1000.0 nM
[39] = target: BDNF/NT-3 growth factors receptor (Homo sapiens) (UniProt Q16620); conditions: Compound concentration 1000.0 nM
[40] = target: Serine/threonine-protein kinase VRK2 (Homo sapiens) (UniProt Q86Y07); conditions: Compound concentration 1000.0 nM
[41] = target: Serine/threonine-protein kinase WNK3 (Homo sapiens) (UniProt Q9BYP7); conditions: Compound concentration 1000.0 nM
[42] = target: D(1B) dopamine receptor (Homo sapiens) (UniProt P21918); conditions: Compound concentration 10.0 uM
Chain of D(1B) dopamine receptor (Homo sapiens) (P21918 whole entry): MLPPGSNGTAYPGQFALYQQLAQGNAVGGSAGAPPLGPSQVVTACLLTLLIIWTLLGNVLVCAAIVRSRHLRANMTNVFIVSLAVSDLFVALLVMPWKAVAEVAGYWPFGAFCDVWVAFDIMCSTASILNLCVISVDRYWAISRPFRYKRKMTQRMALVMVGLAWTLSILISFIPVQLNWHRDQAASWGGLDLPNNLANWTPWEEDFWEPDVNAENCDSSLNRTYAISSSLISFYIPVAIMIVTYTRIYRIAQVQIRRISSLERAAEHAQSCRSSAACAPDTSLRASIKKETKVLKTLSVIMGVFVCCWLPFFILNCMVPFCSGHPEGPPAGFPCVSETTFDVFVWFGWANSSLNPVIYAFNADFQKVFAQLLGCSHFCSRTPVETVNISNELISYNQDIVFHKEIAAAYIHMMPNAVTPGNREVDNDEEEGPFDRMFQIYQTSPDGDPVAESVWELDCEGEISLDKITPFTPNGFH

[43] = target: Delta-type opioid receptor (Homo sapiens) (UniProt P41143); conditions: Compound concentration 10.0 uM
[44] = target: Alpha-2A adrenergic receptor (Homo sapiens) (UniProt P08913); conditions: Compound concentration 10.0 uM
Chain of Alpha-2A adrenergic receptor (Homo sapiens) (P08913 whole entry): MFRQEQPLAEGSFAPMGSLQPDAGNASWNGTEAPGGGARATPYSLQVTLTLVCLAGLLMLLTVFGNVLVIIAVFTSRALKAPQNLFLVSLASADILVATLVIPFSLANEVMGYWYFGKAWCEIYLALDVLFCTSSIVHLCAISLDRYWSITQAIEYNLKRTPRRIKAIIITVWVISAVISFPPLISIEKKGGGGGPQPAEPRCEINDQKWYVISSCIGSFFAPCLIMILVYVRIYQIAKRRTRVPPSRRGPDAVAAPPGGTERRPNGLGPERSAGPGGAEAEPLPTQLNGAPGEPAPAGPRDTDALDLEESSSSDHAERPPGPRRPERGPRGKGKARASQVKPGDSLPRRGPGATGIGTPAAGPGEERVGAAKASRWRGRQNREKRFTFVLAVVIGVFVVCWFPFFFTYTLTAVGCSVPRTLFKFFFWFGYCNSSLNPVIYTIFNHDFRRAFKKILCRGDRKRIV

Rattus norvegicus = organism: Rattus norvegicus; conditions: Compound concentration 10.0 uM

CCC(=N\O)/C(C)=C/c1ccc(F)c(C)c1 [A-226]
residual activity [1]: 98%
residual activity [2]: 75%
residual activity [3]: 99%
residual activity [4]: 100%
residual activity [5]: 93%
residual activity [6]: 96%
residual activity [7]: 98%
residual activity [8]: 100%
residual activity [9]: 100%
residual activity [10]: 100%
residual activity [11]: 100%
residual activity [12]: 100%
residual activity [13]: 68%
residual activity [14]: 79%
residual activity [15]: 100%
residual activity [16]: 91%
residual activity [17]: 100%
residual activity [18]: 80%
residual activity [19]: 100%
residual activity [20]: 97%
residual activity [21]: 49%
residual activity [22]: 97%
residual activity [23]: 100%
residual activity [24]: 100%
residual activity [25]: 88%
residual activity [26]: 100%
residual activity [27]: 95%
residual activity [28]: 100%
residual activity [29]: 82%
residual activity [30]: 100%
residual activity [31]: 100%
residual activity [32]: 100%
residual activity [33]: 100%
residual activity [34]: 85%
residual activity [35]: 82%
residual activity [36]: 96%
residual activity [37]: 100%
residual activity [38]: 73%
residual activity [39]: 100%
residual activity [40]: 100%
residual activity [41]: 100%
inhibition [42]: 11.8%
inhibition [43]: 2.53%
inhibition [44]: 2.82%
inhibition (Rattus norvegicus): 50.6%

CCC(=N\O)/C(C)=C/c1ccc(F)cc1 [A-079]
residual activity [1]: 82%
residual activity [2]: 100%
residual activity [3]: 100%
residual activity [4]: 95%
residual activity [5]: 60%
residual activity [6]: 93%
residual activity [7]: 100%
residual activity [8]: 74%
residual activity [9]: 72%
residual activity [10]: 76%
residual activity [11]: 74%
residual activity [12]: 57%
residual activity [13]: 60%
residual activity [14]: 64%
residual activity [15]: 95%
residual activity [16]: 83%
residual activity [17]: 73%
residual activity [18]: 74%
residual activity [19]: 87%
residual activity [20]: 76%
residual activity [21]: 74%
residual activity [22]: 100%
residual activity [23]: 79%
residual activity [24]: 65%
residual activity [25]: 100%
residual activity [26]: 90%
residual activity [27]: 94%
residual activity [28]: 80%
residual activity [29]: 82%
residual activity [30]: 100%
residual activity [31]: 50%
residual activity [32]: 92%
residual activity [33]: 97%
residual activity [34]: 83%
residual activity [35]: 93%
residual activity [36]: 100%
residual activity [37]: 100%
residual activity [38]: 82%
residual activity [39]: 66%
residual activity [40]: 74%
residual activity [41]: 75%
inhibition [42]: 12.2%
inhibition [43]: -7.17%
inhibition [44]: 5.31%
inhibition (Rattus norvegicus): 11.9%

Reference: ChEMBL document CHEMBL4507256 (2021)
